Measurements from patent US20220282325A1, “METHYLATION ASSAYS AND USES THEREOF” (The General Hospital Corporation, priority 2019, published 2022).

Experiments:
[1] = system: OCI-AML3 cells; assay: XRBS DNA methylation profiling of decitabine-treated cells; type: cell-based, human; conditions: OCI-AML3, 300 nM decitabine, five days, vs DMSO
Protocol: (§1) In order to detect differential methylation across an isogenic system, cell lines were treated with 300 nM decitabine, which inhibits DNA methyltransferase enzymes through covalent entrapment on DNA (FIGS. 22A and 22B). HL-60 and OCI-AML3 were treated, as these had intermediate global methylation levels among the four cell lines examined, and profiled DNA methylation using expanded representation bisulfite sequencing (XRBS) (FIG. 22C).
(§2) For expanded representation bisulfite sequencing (XRBS) profiles, HL-60 and OCI-AML3 cells were treated with 300 nM decitabine in 6 well plates. Cells were harvested after 5 days and gDNA was extracted using Qiagen DNA Mini Blood Kit (51104). 10 ng of gDNA were used for each library preparation.
(§3) Before alignment, primer dimers were filtered using Cutadapt version 2.7 and the following parameters:--discard -a GCTCTTCCGATCT. Short read pairs were trimmed using TrimGalore version 0.6.5 and the following parameters: --paired --illumina --nextseq 20. Trimmed sequencing reads were then aligned to an in-silico bisulfate-converted reference genome (hg38 and mm10) using methylCtools version 1.0.0 and bwa mem version 0.7.17. […] Putative PCR duplicates were removed by considering the outer mapping position of both paired-end reads, as well as the random hexamer sequence that was trimmed prior to alignment and functioned as a unique molecular identifier (UMI). For library complexity analysis, alignments were downsampled prior to this step. DNA methylation calling was performed using methylCtools bcall and the --trimPE parameter. DNA methylation values, which are incorporated herein by reference for all purposes, were deposited on GEO (GSE149954, token: azujmeaezxqdxgr).
(§4) All downstream analyses were performed in R (version 3.6.2), making extensive use of the data.table and GenomicRanges packages. For many analyses, average DNA methylation values within genomic regions were used. Regions included CpG islands, promoters (1 kb up- and downstream of all transcription start sites of protein-coding genes), enhancers and CTCF binding sites (Encyclopedia of DNA Elements (ENCODE) narrowPeak files), and genomic 100 kb-windows. Average methylation values within these regions were calculated by summarizing calls for methylated and unmethylated CpGs across the entire region, and then calculating a single beta-value. For 100 kb-windows, CpGs within islands were not included. Minimum coverage thresholds were applied as indicated. Similarly, average methylation values were calculated for each genomic bin when visualized as heatmaps (genomic regions were separated in 100 equally-sized bins). Differential DNA methylation analysis was performed by sorting regions according to their difference in average methylation values (for enhancers and CTCF binding sites) or by applying a threshold (0.5) on the difference between the average methylation values of one cell line to the average of the other three cell lines (for promoters).

[2] = system: HL-60 cells; assay: as above; type: cell-based, human; conditions: HL-60, 300 nM decitabine, five days
Protocol: as §1, §2, §3, §4

`Nc1ncn([C@H]2C[C@H](O)[C@@H](CO)O2)c(=O)n1` [decitabine] was tested. Which “decrease of DNA methylation levels in CpG islands” value [1] did it give?
Its value is 11.2%.

What about the “decrease of DNA methylation levels in non-island CpGs” value [1] of the same compound?
The value was 14.0%.

What about the “reduction of average global methylation levels” value [1] of the same compound?
The value was 13.7%.

What about the “decrease of DNA methylation levels in CpG islands” value ([2]; vs DMSO) of the same compound?
Its value is 9.5%.

And the “decrease of DNA methylation levels in non-island CpGs” value ([2]; vs DMSO)?
The value was 20.2%.

And the “reduction of average global methylation levels” value ([2]; vs DMSO)?
The value was 19.1%.

What about the “average methylation of non-island CpGs after decitabine treatment” value ([2]; DMSO control 68.1%) of the same compound?
Its value is 54.3%.
